Where only a bound is given, the exact number is not on record here.

The record followed here is US20040053234A1, “Polynucletides that control delta-6 desaturase genes and methods for identifying compounds for modulating delta-6 desaturase” (priority 2000, published 2004).

Data set [1] has as its system whole cells of transformed Saccharomyces cerevisiae. As to the kind of experiment: O.D.600 and substrate radioactivity recovered in whole yeast cells. To be noted: hD6D-1 whole cells. The procedure:
Transformed Saccharomyces cerevisiae pTh5002.1 with V5/6xHis tags were incubated in a 125 ml Erlenmeyer flask containing 9 ml of modified SC-U medium with 1% tergitol (O.D.6000.4, approximately 3.2×10^6 cells) and 200 μl of 7, 14 or 28 mM n-propyl gallate in ethanol. After 1 h incubation in an orbital incubator at 270 rpm and 30° C., 1 μCi of potassium salts of [1-^14C]-linoleic or [1-^14C]-alpha-linolenic acids (dissolved in modified SC-U medium and 1% tergitol) were added to the cell suspension to a final concentration of 2 μM. After 5 h incubation with the inhibitor, cells reached the log phase and the transgene expression was induced with the addition of 1 ml of galactose to a final concentration of 2%.

For data set [2], the system named is spheroplasts of transformed Saccharomyces cerevisiae. Put plainly: O.D.600 and substrate radioactivity recovered in spheroplasts (cytotoxicity, uptake). It counts as cell-based. The source says:
Total lipids were extracted as described below.

For the compound `CCCOC(=O)c1cc(O)c(O)c(O)c1` [n-propyl gallate, Propyl ester of 3,4,5-trihydroxybenzoic acid], the O.D.600 in data set [1] (inhibitor 7 mM) amounted to 9.3; in data set [1] (inhibitor 14 mM), 7.2; in data set [1] (inhibitor 28 mM), 0; in data set [2] (hD6D-1 spheroplasts, inhibitor 0.7 mM) it was 2.2; in data set [2] (hD6D-1 spheroplasts, inhibitor 1.4 mM) it was 3.4; in data set [2] (hD6D-1 spheroplasts, inhibitor 2.8 mM), 3.1. For the same compound, the O.D.600 in data set [2] (hD6D-1 spheroplasts, inhibitor 5.6 mM) amounted to 3.5; in data set [2] (hD6D-1 spheroplasts, inhibitor 14.1 mM), 2.5; in data set [2] (rD6D-1 spheroplasts, inhibitor 0.7 mM) it was 2.5; in data set [2] (rD6D-1 spheroplasts, inhibitor 1.4 mM) it was 2.6; in data set [2] (rD6D-1 spheroplasts, inhibitor 2.8 mM), 2.5; in data set [2] (rD6D-1 spheroplasts, inhibitor 5.6 mM), 2.6. Further, in data set [2] (rD6D-1 spheroplasts, inhibitor 14.1 mM), the O.D.600 was found to be 2.3. Also, the “Concentrations that may be toxic for the spheroplasts” value in data set [2] (cell number slightly decreased, radioactivity recovered substantially reduced) was greater than 5600 µM. The Cytotoxicity to spheroplasts entry in data set [2] (n-propyl gallate 0.7-5.6 mM, constant O.D.600, similar radioactivity recovered) was “not cytotoxic”.
